Experimental data from EP4813972A1, “CRYSTAL FORM OF BENZENE SULFONATE CONTAINING PIPERIDINE RING COMPOUND, AND PREPARATION METHOD THEREFOR AND USE THEREOF” (Shanghai Curegene Pharmaceutical Co., Ltd., priority 2023, dated 2025).
Converted amounts (≈) assume the structure as drawn.

How the values were obtained:
[1] = Solubility study of crystal forms (aqueous HCl pH 1 / 20 mM phosphate buffer pH about 7, HPLC analysis); format: physicochemical
Description: The detailed parameters were as follows:
An aqueous HCl solution at pH 1 was prepared. […] After dissolution by stirring, the solution was adjusted to pH = 1 with 1 N NaOH or 1 N HCl. The timing was started, and after T = 3 h, the pH was measured. […] When T = 4 h, the dissolution status was observed, and a dilution factor was selected according to the dissolution status. 50% ACN was used as a diluent for HPLC analysis. When T = 24 h, the dissolution state was observed. With reference to the concentration data at 4 h and the dissolution state at 24 h, a dilution factor was selected, and HPLC analysis was performed. The solubility was calculated according to the HPLC analysis results described above.
The aqueous HCl solution at pH 1 in the step described above was replaced with a 20 mM phosphate buffer solution at pH of about 7, and the steps described above were repeated. The solubility was calculated.

[2] = Stability study of crystal forms (crystal form status by XRPD after storage); format: physicochemical; details: 14 days
Description: Test method: The sample was prepared on a zero-background silicon wafer by gently pressing to obtain a flat surface. About 10-20 mg of a sample was used for XRPD analysis.

COC(=O)[C@H](c1ccccc1Cl)N1CC[C@@H](SCOC(=O)OC(C)C)/C(=C\C(=O)O)C1 [Crystal form F1]
solubility at 4 h ([1]; 20 mm phosphate buffer, pH=7, 4 h): 9.89 mg/mL (≈ 21 mM) | solubility at 24 h ([1]; 20 mm phosphate buffer, pH=7, 24 h): 6.14 mg/mL (≈ 13 mM) | solubility at 4 h ([1]; aqueous hcl, pH=1, 4 h): 11.5 mg/mL (≈ 24.4 mM) | solubility at 24 h ([1]; aqueous hcl, pH=1, 24 h): 11.4 mg/mL (≈ 24.1 mM) | Dissolution status ([1]; pH=1, 4 h): Clear solution | Dissolution status ([1]; pH=1, 24 h): Clear solution | Dissolution status ([1]; pH=7, 4 h): Clear solution | Dissolution status ([1]; pH=7, 24 h): Clear solution | Crystal form after treatment ([2]; 25 °C/60% RH, open container): Crystal form F1 | Crystal form after treatment ([2]; Sealed container at 2-8 °C): Crystal form F1 | Crystal form after treatment ([2]; Sealed container at 40 °C): Crystal form F1 | Crystal form after treatment ([2]; Sealed container at 60 °C): Crystal form F1
